From PMC5225172 (Cancer Chemotherapy and Pharmacology, 2016)
Entries after “also recorded” stand apart in the source; their conditions may differ.

Assays:
[1] = Phase I safety and tolerability: adverse events (NCI CTCAE v4.03), DLT, MTD; details: human, in vivo, iv
Protocol: (§1) Dosing on days 8 and 15 was permitted within a window of ±1 day if necessary, and dosing was considered missed if delayed by more than 1 day. Dose delays of up to 2 weeks were permitted for day 1 of cycle 2 or later, although for days 8 and 15 of cycle 2 and subsequent cycles, dosing within a window of ±3 days was permitted, except for in cycle 3, where dosing was to be administered within ±1 day of days 8 and 15.
(§2) Patients were enrolled into cohort 1 and were evaluated for the occurrence of a dose-limiting toxicity (DLT) as defined by the National Cancer Institute Common Terminology Criteria for Adverse Events version 4.03. […] Completion of cycle 1 in cohort 1 constituted study completion.
(§3) Protocol-defined DLTs included non-hematologic adverse events of grade ≥3. Hyperglycemia defined as a DLT was to be determined based on serum glucose values. Hematologic DLTs were defined as grade 4 neutropenia for ≥3 days, an absolute neutrophil count <1000 with fever ≥38.5 °C, and grade 4 thrombocytopenia. Patients with non-hematologic DLTs were to discontinue study treatment.
(§4) Screening comprised: provision of written, informed consent; demographics; baseline characteristics; concomitant medications; safety assessments (adverse events [defined as any new finding not present in the patient’s medical history, or a worsening of a prior medical history finding], vital signs, laboratory tests, physical examination, 12-lead electrocardiogram, multigated acquisition scan, or echocardiogram); tumor measurements by computed tomography or magnetic resonance imaging; disease assessment as defined by RECIST version 1.1; ophthalmologic examination; chest computed tomography; and ECOG PS assessment. The following assessments were also performed on cycle 1, day 1: safety; ECOG PS assessment; concomitant medications; blood samples for PK analysis; serum samples for glucose analysis; serum insulin; urinalysis; serum ketones; and post-dose echocardiogram. Safety assessments, blood pressure measurements, blood sampling for PK analysis, and urinalysis were also performed on days 8 and 15 of cycle 1.

[2] = test system: Japanese patients with advanced or refractory solid tumors; experiment: as above
Protocol: as §1, §2, §3, §4

[3] = test system: advanced or refractory solid tumors; experiment: Tumor response and disease assessment by RECIST version 1.1; type: in vivo, human
From the text: as §4
Additional PK samples were collected at either 72, 96, or 120 h following the start of infusion. PK samples were also collected on cycle 1, day 15 at 0, 0.5, 1, 1.5, 2, 3, 5, 8, 11, and 25 h following the start of infusion and on cycle 3, day 15 at 0, 0.5, 1, 1.5, 2, 3, 5, and 8 h following the start of infusion. Blood pressure monitoring was performed every 5 min before dosing on cycle 1, day 1 until the observation of two consecutive measurements <150 mmHg (systolic) and <90 mmHg (diastolic). […] Serum samples for glucose analysis were collected immediately before the first infusion and in parallel with PK sampling through to 49 h post-dose. Glucose samples taken at 25 h post-dose were to be fasting, where possible and if deemed safe. Capillary blood glucose testing was to be performed for hyperglycemia management as determined appropriate by the investigator; hyperglycemia was defined as capillary blood glucose >200 mg/dL and was to be treated with short-acting insulin. Tumor measurement and disease assessment according to RECIST version 1.1 were conducted every two cycles by the investigator.

[4] = test system: advanced solid tumors and non-Hodgkin's lymphoma; parameters: method as in PMID 27672108; details: cited from earlier work

Structure (SMILES): COc1c(OCCCN2CCOCC2)ccc2c1N=C(NC(=O)c1cnc(N)nc1)N1CCN=C21 [copanlisib, Copanlisib]
- MTD at 28 days [1]: 0.8 mg/kg
- Treatment-emergent AE of all grades, irrespective of causality: Flu-like symptoms ([2]; Cohort 1, 0.4 mg/kg (n = 3)): 0 n (%)
- Treatment-emergent AE of all grades, irrespective of causality: Flu-like symptoms ([2]; Cohort 2, 0.8 mg/kg (n = 7)): 2 (28.6) n (%)
- Treatment-emergent AE of all grades, irrespective of causality: Flu-like symptoms ([2]; Total (N = 10)): 2 (20.0) n (%)
- AEs leading to permanent discontinuation of study drug ([2]; human, in vivo): 2 (20.0) n (%)
- Adverse events leading to study discontinuation ([2]; human, in vivo): 20.0%
- Any AE ([2]; human, in vivo): 10 (100) n (%)
- Any drug-related AE ([2]; human, in vivo): 10 (100) n (%)
- Any serious AE ([2]; human, in vivo): 3 (30.0) n (%)
- Grade 3 AE ([2]; human, in vivo): 5 (50.0) n (%)
- Grade 3 drug-related AE ([2]; human, in vivo): 2 (20.0) n (%)
- Grade 3 hypertension ([2]; human, in vivo): no reports of grade 3 hypertension
- Grade 4 AE ([2]; human, in vivo): 1 (10.0) n (%)
- Hematologic and biochemical toxicity event: anemia ([2]; human, in vivo): 90.0%
- Hematologic and biochemical toxicity event: hypoalbuminemia ([2]; human, in vivo): 90.0%
- Hematologic and biochemical toxicity event: lymphocytopenia ([2]; human, in vivo): 90%
- TEAE of all grades irrespective of causality: constipation ([2]; human, in vivo): 50.0%
- TEAE of all grades irrespective of causality: hyperglycemia ([2]; human, in vivo): 80.0%
- TEAEs of grade 3 as worst grade ([2]; human, in vivo): 50.0%
- TEAEs of grade 3 as worst grade considered drug-related ([2]; human, in vivo): 20.0%
- Treatment-emergent AE of all grades, irrespective of causality: Acneiform rash ([2]; human, in vivo): 3 (30.0) n (%)
- Treatment-emergent AE of all grades, irrespective of causality: Anemia ([2]; human, in vivo): 3 (30.0) n (%)
- Treatment-emergent AE of all grades, irrespective of causality: Anorexia ([2]; human, in vivo): 3 (30.0) n (%)
- Treatment-emergent AE of all grades, irrespective of causality: Constipation ([2]; human, in vivo): 5 (50.0) n (%)
- Treatment-emergent AE of all grades, irrespective of causality: Cough ([2]; human, in vivo): 2 (20.0) n (%)
- Treatment-emergent AE of all grades, irrespective of causality: Fever ([2]; human, in vivo): 4 (40.0) n (%)
- Treatment-emergent AE of all grades, irrespective of causality: Hyperglycemia ([2]; human, in vivo): 8 (80.0) n (%)
- Treatment-emergent AE of all grades, irrespective of causality: Hypertension ([2]; human, in vivo): 7 (70.0) n (%)
- Treatment-emergent AE of all grades, irrespective of causality: Increased ALP ([2]; human, in vivo): 4 (40.0) n (%)
- Treatment-emergent AE of all grades, irrespective of causality: Increased ALT ([2]; human, in vivo): 3 (30.0) n (%)
- Treatment-emergent AE of all grades, irrespective of causality: Increased AST ([2]; human, in vivo): 2 (20.0) n (%)
- Treatment-emergent AE of all grades, irrespective of causality: Insomnia ([2]; human, in vivo): 2 (20.0) n (%)
- Treatment-emergent AE of all grades, irrespective of causality: Investigations, other ([2]; human, in vivo): 4 (40.0) n (%)
- Treatment-emergent AE of all grades, irrespective of causality: Leukopenia ([2]; human, in vivo): 4 (40.0) n (%)
- Treatment-emergent AE of all grades, irrespective of causality: Lymphocytopenia ([2]; human, in vivo): 4 (40.0) n (%)
- Treatment-emergent AE of all grades, irrespective of causality: Malaise ([2]; human, in vivo): 2 (20.0) n (%)
- Treatment-emergent AE of all grades, irrespective of causality: Nausea ([2]; human, in vivo): 3 (30.0) n (%)
- Treatment-emergent AE of all grades, irrespective of causality: Neutropenia ([2]; human, in vivo): 4 (40.0) n (%)
- Treatment-emergent AE of all grades, irrespective of causality: Oral mucositis ([2]; human, in vivo): 2 (20.0) n (%)
- Treatment-emergent AE of all grades, irrespective of causality: Pruritus ([2]; human, in vivo): 2 (20.0) n (%)
- Treatment-emergent AE of all grades, irrespective of causality: Tumor pain ([2]; human, in vivo): 4 (40.0) n (%)
- AEs leading to dose modification ([2]; human, in vivo, 28 days): 1 (33.3) n (%)
- Patients with dose-limiting toxicity (DLT) ([2]; human, in vivo, 28 days): No patients treated at 0.4 mg/kg experienced a dose-limiting toxicity
- Cases of colitis ([2]; in vivo): no cases of colitis
- Deaths on study ([2]; in vivo): No deaths on study were reported
- Hematologic and biochemical toxicity event: hyperglycemia ([2]; in vivo): all ten patients
- Hematologic and biochemical toxicity event: increased creatinine ([2]; in vivo): all ten patients
- Patients with dose-limiting toxicity (DLT) ([2]; in vivo): No patients experienced DLTs
- Patients with grade ≥3 elevated aminotransferase levels ([2]; in vivo): Two patients
- Relationship to study drug: grade 3 Anemia ([2]; in vivo): Not likely to be related
- Relationship to study drug: grade 3 Diarrhea ([2]; in vivo): Possibly related
- Relationship to study drug: grade 3 Hepatobiliary disorder ([2]; in vivo): Not likely to be related
- Relationship to study drug: grade 3 Hyperglycemia ([2]; in vivo): Possibly related
- Relationship to study drug: grade 3 Increased ALP ([2]; in vivo): Not likely to be related
- Relationship to study drug: grade 3 Increased ALT ([2]; in vivo): Not likely to be related
- Relationship to study drug: grade 3 Insomnia ([2]; in vivo): Not likely to be related
- Relationship to study drug: grade 3 Lymphocytopenia ([2]; in vivo): Possibly related
- Relationship to study drug: grade 3 Stroke ([2]; in vivo): Not likely to be related
- Relationship to study drug: grade 4 Increased AST ([2]; in vivo): Not likely to be related
- Grade 5 adverse events ([2]; irrespective of causality): No grade 5 adverse events were reported
- Best overall response: Complete response ([3]; Cohort 1, 0.4 mg/kg (n = 3)): 0 n (%)
- Best overall response: Partial response ([3]; Cohort 1, 0.4 mg/kg (n = 3)): 0 n (%)
- Best overall response: Progressive disease (by proven measurement) ([3]; Cohort 1, 0.4 mg/kg (n = 3)): 2 (66.7) n (%)
- Best overall response: Stable disease ([3]; Cohort 1, 0.4 mg/kg (n = 3)): 1 (33.3) n (%)
- Overall disease control rate (complete response + partial response + stable disease) ([3]; Cohort 1, 0.4 mg/kg (n = 3)): 1 (33.3) n (%)
- Overall response rate (complete response + partial response) ([3]; Cohort 1, 0.4 mg/kg (n = 3)): 0 n (%)
- Best overall response: Complete response ([3]; Cohort 2, 0.8 mg/kg (n = 7)): 0 n (%)
- Best overall response: Partial response ([3]; Cohort 2, 0.8 mg/kg (n = 7)): 0 n (%)
- Best overall response: Progressive disease (by proven measurement) ([3]; Cohort 2, 0.8 mg/kg (n = 7)): 4 (57.1) n (%)
- Best overall response: Stable disease ([3]; Cohort 2, 0.8 mg/kg (n = 7)): 3 (42.9) n (%)
- Overall disease control rate (complete response + partial response + stable disease) ([3]; Cohort 2, 0.8 mg/kg (n = 7)): 3 (42.9) n (%)
- Overall response rate (complete response + partial response) ([3]; Cohort 2, 0.8 mg/kg (n = 7)): 0 n (%)
- Best overall response: Complete response ([3]; Total (n = 10)): 0 n (%)
- Best overall response: Partial response ([3]; Total (n = 10)): 0 n (%)
- Best overall response: Progressive disease (by proven measurement) ([3]; Total (n = 10)): 6 (60.0) n (%)
- Best overall response: Stable disease ([3]; Total (n = 10)): 4 (40.0) n (%)
- Overall disease control rate (complete response + partial response + stable disease) ([3]; Total (n = 10)): 4 (40.0) n (%)
- Overall response rate (complete response + partial response) ([3]; Total (n = 10)): 0 n (%)
- Disease control rate ([3]; cohort 1, 0.4 mg/kg): 33.3%
- Median time to progression ([3]; cohort 1, 0.4 mg/kg, 95% CI 50–77): 52 days
- Time to progression, single patient ([3]; cohort 1, stable disease as best response): 77 days
- Disease control rate ([3]; cohort 2, 0.8 mg/kg): 42.9%
- Median time to progression ([3]; cohort 2, 0.8 mg/kg, 95% CI 21–not estimated): 53 days
- Time to progression, single patient (censored) ([3]; cohort 2, gastrointestinal stromal tumor, stable disease, discontinued for thrombocytopenia): 176 days
- Time to progression, single patient ([3]; cohort 2, stable disease as best response): 82 days
- Time to progression, single patient (censored) ([3]; cohort 2, stable disease, discontinued because of grade 3 diarrhea): 50 days
- Rate of progression-free survival ([3]; overall, after 1 month): 0.80 (95% CI 0.41–0.95)
- Rate of progression-free survival ([3]; overall, after 2 months): 0.35 (95% CI 0.08–0.64)
- Rate of progression-free survival ([3]; overall, after 3 months): 0.12 (95% CI 0.01–0.40)
- Median time to progression ([3]; overall, 95% CI 21–82): 52 days
- Complete or partial response ([3]; ten patients): No patients achieved a complete or partial response; also recorded: none experienced a complete or partial response
- Disease control rate ([3]; ten patients): 40%
- Progressive disease as best response ([3]; ten patients): 60.0%
- Stable disease as best response ([3]; ten patients): 40.0%
- Objective response rate ([4]; 25 patients in solid-tumor expansion cohort treated at the MTD): 12%
- Disease control rate ([4]; advanced solid-tumor expansion cohort): 44%
- Antitumor activity in patients with non-Hodgkin's lymphoma ([4]; first-in-human study): seven out of nine patients
